Entries after “also recorded” stand apart in the source; their conditions may differ. Like-named read-outs stand apart in the source and are kept apart here.
Legend:
[1] = Plasma pharmacokinetics, Cycle 1 (LC-MS, non-compartmental); assay type: in vivo, human; settings: for half-life / Tmax / concentration at 7 days / AUC(0-t) / Cmax: human, plasma, 3 mg; for concentration at 7 days: after 7 days of dosing
Description: Blood samples were obtained on Days 1, 2, and 8 of Cycle 1. […] plasma concentrations were measured using liquid chromatography‐mass spectroscopy. Plasma concentration‐time data were analyzed by standard methods using WinNonlin. Pearson's correlation coefficient (r) was used to assess correlation of group variables. Statistical significance was defined as p < 0.05. Additional details are contained in the Supplementary Method: Data S1.
Blood samples (6 ml, sodium heparin) were obtained during the first cycle of treatment before drug administration on Days 1, 2 and 8; and 0.5, 1, 2, 3, 4, and 8 hours after the oral dose was administered on Day 1 and Day 8. After collection, tubes were immediately cooled in an ice water bath and plasma was isolated by centrifugation (10 minutes; 1,100 - 1,300 x g; 4°C) in a refrigerated centrifuge. Plasma samples were frozen immediately and stored at approximately -70°C or lower until analysis.
Plasma concentration-time data were analyzed by standard non-compartmental methods using WinNonlin (Pharsight, Mountain View, CA). Standard descriptive statistics were used to summarize plasma sapanisertib PK parameters. […] Oral steady-state clearance (ClSS/F) was calculated using the equation, ClSS = Dose/AUCτ.

[2] = system: phospho-4EBP1 (direct mTORC1 substrate) in Jurkat ALL cell line; assay: Immunoblotting of Jurkat cells treated 24 h with sapanisertib; assay type: cell-based, human
Source text: FIGURE 2 Effect of MLN0128 concentrations on mTOR‐associated phosphorylation in vitro, ex vivo, and in the context of the present trial. […] (C) Samples harvested from the indicated patients prior to treatment (lanes 1, 4, 6, 8, and 10), on Day 8 prior to therapy (lanes 2, 5, 7, 9, and 11), or at the time of removal from study after 6 weeks (lane 3) were subjected to SDS‐PAGE and blotting for the indicated antigens. Jurkat cells (lane 12) were included in the blot because they were known to be positive for all analytes.[29] The housekeeping protein nucleolin (NCL) served as a loading control.
(§1) After samples were dialyzed sequentially into 4 M urea and 0.1% (w/v) SDS, lyophilized and reconstituted in SDS-sample buffer consisting of 4 M urea, 2% (w/v) SDS, […] (pH 6.8 at 4 °C), 10 mM EDTA, and 1% (w/v/) 2-mercaptoethanol, aliquots containing […] of total cellular protein were subjected to SDS-PAGE on gels containing 5-20% polyacrylamide gradients, transferred to nitrocellulose, and probed with antibodies as previously described ^34, 35. […]

[3] = system: mTOR pathway substrates 4EBP1, S6, AKT; assay: Immunoblotting of paired bone marrow samples (pretreatment vs Day 8) from trial patients; assay type: in vivo, human
Source text: Bone marrow aspirates harvested prior to treatment and again prior to drug administration on Day 8 ± 2 of treatment from the same patients were shipped overnight to a central laboratory, where marrow mononuclear cells isolated on Ficoll–Hypaque gradients were lysed under denaturing conditions that preserve protein phosphorylations. Paired whole cell lysates were subjected to SDS‐polyacrylamide gel electrophoresis and immunoblotting as described in the Supplementary Method: Data S1.
Cells were isolated from bone marrow or blood samples using Histopaque-1077 (Millipore-Sigma, St. Louis, MO) step gradients. […] Cells for ex vivo drug exposure were resuspended at a concentration of 1 x 10^6 cells/ml in RPMI 1640 medium containing 10% (v/v) heat-inactivated fetal bovine serum, 50 U/ml penicillin G, 50 µg/ml streptomycin, and 1 mM glutamine.
as §1

[4] = system: patients with advanced multiple myeloma; parameters: method as in PMID 26800393; settings: orally daily; cited from earlier work
BCR‐ABL‐positive ALL = system: BCR‐ABL‐positive ALL; parameters: method as in PMID 23090679; settings: cited from earlier work

SMILES: CC(C)n1nc(-c2ccc3oc(N)nc3c2)c2c(N)ncnc21 [sapanisertib]
- C max, Mean ± SD ([1]; Cycle 1 Day 1, 3 mg daily oral): 26.1 ± 8.0 ng/mL
- CL, Mean ± SD ([1]; Cycle 1 Day 1, 3 mg daily oral): 22.0 ± 14.2 L/h
- CL, Median (range) ([1]; Cycle 1 Day 1, 3 mg daily oral): 22.0 (5.8–49.2) L/hr
- CL, Mean ± SD ([1]; Cycle 1 Day 8, 3 mg daily oral): 23.3 ± 23.8 L/h
- CL, Median (range) ([1]; Cycle 1 Day 8, 3 mg daily oral): 16.4 (3.2–82.6) L/hr
- peak plasma concentration ([1]; Day 1): 84 nM
- time to peak concentration after drug administration ([1]; Day 1): 2 h
- time to peak concentration after drug administration ([1]; Day 8): 1.2 h
- time of peak concentration (mean) ([1]; Day 8 dose, discussion): 1.5 h
- mean accumulation ratio ([1]; Day 8 versus Day 1 AUCall): 1.4
- half‐life (terminal serum) ([1]; discussion): 8 h
- half-life ([1]; oral, Day 1, read-out: mean elimination half‐life (converted)): 8.2 ± 4.9 h
- Tmax ([1]; oral, Day 1, read-out: time to peak concentration, range): 0.5 to 4.1 h
- half-life ([1]; oral, Day 8, read-out: mean half‐life (converted)): 24.3 ± 42.5 h
- Tmax ([1]; oral, Day 8, read-out: time to peak concentration, range): 0.5 to 2.9 h
- concentration at 7 days ([1]; oral, read-out: median trough concentration): 1.9 ng/mL
- concentration at 7 days ([1]; oral, read-out: trough concentration, range): 0 to 41.6 ng/mL
- AUC(0-t) ([1]; po, Cycle 1 Day 1, 3 mg daily oral, read-out: AUC0–24 h, Mean ± SD): 213 ± 143 ng·h/mL
- AUC(0-t) ([1]; po, Cycle 1 Day 1, 3 mg daily oral, read-out: AUC0–24 h, Median (range)): 213 ng·h/mL
- Cmax ([1]; po, Cycle 1 Day 1, 3 mg daily oral, read-out: C max, Mean ± SD): 26 ng/mL
- Cmax ([1]; po, Cycle 1 Day 1, 3 mg daily oral, read-out: C max, Median (range)): 26.5 ng/mL
- half-life ([1]; po, Cycle 1 Day 1, 3 mg daily oral, read-out: Half‐life, Mean ± SD (converted)): 8.2 ± 4.9 h
- half-life ([1]; po, Cycle 1 Day 1, 3 mg daily oral, read-out: Half‐life, Median (range) (converted)): 7.1 h
- Tmax ([1]; po, Cycle 1 Day 1, 3 mg daily oral, read-out: T max, Mean ± SD): 1.7 ± 1.1 h
- Tmax ([1]; po, Cycle 1 Day 1, 3 mg daily oral, read-out: T max, Median (range)): 2 h
- AUC(0-t) ([1]; po, Cycle 1 Day 8, 3 mg daily oral, read-out: AUC0–24 h, Mean ± SD): 361 ± 337 ng·h/mL
- AUC(0-t) ([1]; po, Cycle 1 Day 8, 3 mg daily oral, read-out: AUC0–24 h, Median (range)): 182 ng·h/mL
- Cmax ([1]; po, Cycle 1 Day 8, 3 mg daily oral, read-out: C max, Mean ± SD): 34.4 ± 20.9 ng/mL
- Cmax ([1]; po, Cycle 1 Day 8, 3 mg daily oral, read-out: C max, Median (range)): 29.4 ng/mL
- half-life ([1]; po, Cycle 1 Day 8, 3 mg daily oral, read-out: Half‐life, Mean ± SD (converted)): 24.3 ± 42.5 h
- half-life ([1]; po, Cycle 1 Day 8, 3 mg daily oral, read-out: Half‐life, Median (range) (converted)): 11.3 h
- Tmax ([1]; po, Cycle 1 Day 8, 3 mg daily oral, read-out: T max, Mean ± SD): 1.5 ± 0.7 h
- Tmax ([1]; po, Cycle 1 Day 8, 3 mg daily oral, read-out: T max, Median (range)): 1.2 h
- concentration diminishing phosphorylation of 4EBP1 without change in total 4EBP1 [2]: 62.5 to 200 nM
- induction of BIMEL and PUMA in trial samples ([3]; five pairs of samples): minimal in one pair of samples (Patient 2) and absent from the other four pairs
- impact on mTOR‐mediated phosphorylation (4EBP1, S6, AKT) in trial samples ([3]; pretreatment vs Day 8 trough, five patients): limited impact; also recorded: little evidence that mTOR‐mediated phosphorylation has been disrupted; also recorded: failed to convincingly demonstrate inhibition
- MTD [4]: 6 mg
- growth of syngeneic mouse model of BCR‐ABL‐positive ALL (BCR‐ABL‐positive ALL): inhibited growth
